Test results published in BigSolDB 2.1.

CC(C)(C)OC(=O)N[C@@H](CC(=O)O)Cc1cc(F)c(F)cc1F
solubility (mole fraction)
Conditions | in THF | in ethanol | in ethyl acetate | in methanol | in n-butanol | in n-propanol
280.15 K | 0.0933 | 0.036 | 0.0409 | 0.053 | 0.0274 | 0.0312
285.15 K | 0.105 | 0.042 | 0.0477 | 0.0582 | 0.0306 | 0.0374
290.15 K | 0.116 | 0.0483 | 0.0556 | 0.0669 | 0.0353 | 0.0449
295.15 K | 0.129 | 0.0559 | 0.0652 | 0.0751 | 0.0426 | 0.0522
300.15 K | 0.144 | 0.0659 | 0.0773 | 0.085 | 0.0514 | 0.0619
305.15 K | 0.163 | 0.0754 | 0.089 | 0.097 | 0.0619 | 0.0718
310.15 K | 0.187 | 0.0894 | 0.104 | 0.111 | 0.0735 | 0.0847
315.15 K | 0.215 | 0.103 | 0.121 | 0.129 | 0.0868 | 0.0985
320.15 K | 0.244 | 0.125 | 0.14 | 0.151 | 0.103 | 0.116
325.15 K | 0.279 | 0.147 | 0.164 | 0.178 | 0.126 | 0.139
330.15 K | 0.322 | 0.173 | 0.188 | 0.211 | 0.154 | 0.162
